According to PubChem BioAssay (NCI):
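Step 1: Grow cells in 96-well plates. Step 2: Expose to compound for 48 hours at 5 concentrations. Step 3: Interpolate endpoints linearly; if unreached, use highest concentration. Definition used: TGI = concentration required for complete inhibition of growth.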

Key:
Assay in all cases: growth of human tumour cells (NCI), 48 h
SK-MEL-28 melanoma = test system: SK-MEL-28 melanoma
HCT-116 colon = test system: HCT-116 colon
TK-10 renal = test system: TK-10 renal
RXF 393 renal = test system: RXF 393 renal
HOP-62 NSCLC = test system: HOP-62 NSCLC
SF-539 CNS = test system: SF-539 CNS
SR leukemia = test system: SR leukemia
K-562 leukemia = test system: K-562 leukemia
LOX IMVI melanoma = test system: LOX IMVI melanoma
EKVX NSCLC = test system: EKVX NSCLC
UO-31 renal = test system: UO-31 renal
M14 melanoma = test system: M14 melanoma
COLO 205 colon = test system: COLO 205 colon
U251 CNS = test system: U251 CNS
MDA-MB-435 = test system: MDA-MB-435
SK-MEL-2 melanoma = test system: SK-MEL-2 melanoma
NCI-H226 lung = test system: NCI-H226 lung
OVCAR-3 ovarian = test system: OVCAR-3 ovarian
RPMI-8226 leukemia = test system: RPMI-8226 leukemia
NCI-H23 lung = test system: NCI-H23 lung
OVCAR-8 ovarian = test system: OVCAR-8 ovarian
SK-OV-3 ovarian = test system: SK-OV-3 ovarian
CCRF-CEM leukemia = test system: CCRF-CEM leukemia
IGROV1 ovarian = test system: IGROV1 ovarian
OVCAR-4 ovarian = test system: OVCAR-4 ovarian
SF-295 CNS = test system: SF-295 CNS
HCT-15 colon = test system: HCT-15 colon
UACC-62 melanoma = test system: UACC-62 melanoma
HS 578T breast = test system: HS 578T breast
MALME-3M melanoma = test system: MALME-3M melanoma
SN12C renal = test system: SN12C renal
UACC-257 melanoma = test system: UACC-257 melanoma
CAKI-1 renal = test system: CAKI-1 renal
NCI-H460 lung = test system: NCI-H460 lung
HL-60(TB) leukemia = test system: HL-60(TB) leukemia
BT-549 breast = test system: BT-549 breast
NCI-H522 lung = test system: NCI-H522 lung
MDA-MB-231 breast = test system: MDA-MB-231 breast
KM12 colon = test system: KM12 colon
HT29 colon = test system: HT29 colon
SF-268 CNS = test system: SF-268 CNS
MOLT-4 leukemia = test system: MOLT-4 leukemia
DU-145 prostate = test system: DU-145 prostate
MCF7 breast = test system: MCF7 breast
NCI/ADR-RES ovarian = test system: NCI/ADR-RES ovarian
A498 renal = test system: A498 renal
ACHN renal = test system: ACHN renal
MDA-N = test system: MDA-N
SW-620 colon = test system: SW-620 colon
SK-MEL-5 melanoma = test system: SK-MEL-5 melanoma
T-47D breast = test system: T-47D breast
786-0 renal = test system: 786-0 renal
SNB-19 CNS = test system: SNB-19 CNS
PC-3 prostate = test system: PC-3 prostate
OVCAR-5 ovarian = test system: OVCAR-5 ovarian
SNB-75 CNS = test system: SNB-75 CNS
A549 NSCLC = test system: A549 NSCLC
HOP-92 NSCLC = test system: HOP-92 NSCLC
HCC-2998 colon = test system: HCC-2998 colon

Measured: TGI

O=C(O)C1C2C=CC(O2)C1C(=O)NCc1ccccn1 (stereo unspecified)
not listed: HCC-2998 colon
> 100 µM: all other assays above

C1C2CC3CC1CC(Nc1nc(NC45CC6CC(CC(C6)C4)C5)nc(NC45CC6CC(CC(C6)C4)C5)n1)(C2)C3
> 94.9 µM: COLO 205 colon
> 79.2 µM: SNB-75 CNS
> 77.5 µM: EKVX NSCLC
> 42.8 µM: SK-MEL-5 melanoma
> 52.1 µM: LOX IMVI melanoma
> 51.5 µM: KM12 colon
> 93.2 µM: SK-MEL-28 melanoma
> 65.5 µM: OVCAR-8 ovarian
> 44.1 µM: 786-0 renal
not listed: IGROV1 ovarian | NCI-H522 lung
> 100 µM: all other assays above

O=C(O)c1ccc(N=C(C(=Nc2ccc(C(=O)O)cc2)c2ccccc2)c2ccccc2)cc1
not listed: SF-539 CNS | CCRF-CEM leukemia | MALME-3M melanoma | CAKI-1 renal | HL-60(TB) leukemia | NCI-H522 lung | HT29 colon | SK-MEL-5 melanoma | HOP-92 NSCLC
> 100 µM: all other assays above

COc1ccccc1/C(=N\OCCC(=O)O)c1cccs1
not listed: SR leukemia | M14 melanoma | IGROV1 ovarian | NCI-H522 lung
> 100 µM: all other assays above

O=C1NC(=O)C(c2c[nH]c3ccccc23)=C1c1cnc[nH]1
9.4 µM: NCI-H226 lung
78.1 µM: SK-MEL-5 melanoma
not listed: NCI-H23 lung | UACC-62 melanoma | HCC-2998 colon
> 100 µM: all other assays above

O=C1NC(NNc2ccccc2)=N/C1=C\c1ccccc1O
82 µM: PC-3 prostate
not listed: CCRF-CEM leukemia | SK-MEL-5 melanoma
> 100 µM: all other assays above

C/C(=N\NC(=S)N1CCCCC1)c1nc2ncccc2[nH]1
68.4 µM: TK-10 renal
43.1 µM: HOP-92 NSCLC
28.6 µM: SR leukemia
28.3 µM: BT-549 breast
35 µM: MDA-MB-435
96.4 µM: A549 NSCLC
22.7 µM: HCT-116 colon
65.5 µM: A498 renal
69.7 µM: UACC-62 melanoma
30.1 µM: RPMI-8226 leukemia
42.4 µM: T-47D breast
57.5 µM: NCI-H23 lung
49.8 µM: NCI-H460 lung
86.3 µM: DU-145 prostate
98.2 µM: EKVX NSCLC
26.7 µM: NCI-H226 lung
14 µM: MCF7 breast
37.7 µM: SK-MEL-28 melanoma
31.9 µM: UACC-257 melanoma
88.7 µM: SF-295 CNS
34.8 µM: OVCAR-8 ovarian
47.9 µM: MDA-N
21.3 µM: SF-539 CNS
19.9 µM: MOLT-4 leukemia
17.2 µM: CCRF-CEM leukemia
30.7 µM: NCI-H522 lung
19.1 µM: HL-60(TB) leukemia
12.3 µM: SK-MEL-5 melanoma
47.7 µM: M14 melanoma
76.4 µM: OVCAR-5 ovarian
43.7 µM: K-562 leukemia
not listed: RXF 393 renal
> 100 µM: all other assays above
